Source: patent US9617237B2, “Partially saturated tricyclic compounds and methods of making and using same” (Zafgen, Inc., priority 2011, dated 2017)
Structures can show the parent of a compound that is named as a salt.

Molecular target: T1, recombinant human MetAP2 (Homo sapiens, UniProt P50579)
T1 construct: made in house; host or cells: Sf9 insect cells
Assay: Inhibition of recombinant human MetAP2 activity (fluorescence, MAS substrate, amino acid oxidase/Amplex red)
Type: biochemical
Settings: manganese enzyme; 0.75 mM Methionine-Alanine-Serine (MAS) substrate; 30 minutes at 25° C.; pH 7.5; 1% DMSO
Method: Compounds are tested for their capacity to inhibit recombinant human MetAP2 activity using the following assay.
Human recombinant MetAP2 expressed in Sf9 cells followed by affinity purification and EDTA treatment to remove endogenous active site cation was dialysed against MnCl2 to produce the manganese enzyme used in the assay. The assay was carried out for 30 minutes at 25° C. in 50 mM HEPES buffer containing 100 mM NaCl, pH 7.5 the presence of 0.75 mM Methionine-Alanine-Serine (MAS) substrate and 50 μg/ml amino acid oxidase using a dilution of purified MetAP2 giving >3-fold signal: noise. Cleavage of the substrate by MetAP2 and oxidation of free methionine by amino acid oxidase was detected and quantified using fluorescence generated by Amplex red (10-acetyl-3,7-dihydroxyphenoxazine) in combination with horseradish peroxidase which detects H2O2 released during the oxidation step. The fluorescent signal was detected using a multiwell fluorimeter. Compounds were diluted in DMSO prior to addition to assay buffer, the final DMSO concentration in the assay being 1%.
IC50 values are calculated using the XLfit software package (version 2.0.5).

T1 sequence (P50579 whole entry): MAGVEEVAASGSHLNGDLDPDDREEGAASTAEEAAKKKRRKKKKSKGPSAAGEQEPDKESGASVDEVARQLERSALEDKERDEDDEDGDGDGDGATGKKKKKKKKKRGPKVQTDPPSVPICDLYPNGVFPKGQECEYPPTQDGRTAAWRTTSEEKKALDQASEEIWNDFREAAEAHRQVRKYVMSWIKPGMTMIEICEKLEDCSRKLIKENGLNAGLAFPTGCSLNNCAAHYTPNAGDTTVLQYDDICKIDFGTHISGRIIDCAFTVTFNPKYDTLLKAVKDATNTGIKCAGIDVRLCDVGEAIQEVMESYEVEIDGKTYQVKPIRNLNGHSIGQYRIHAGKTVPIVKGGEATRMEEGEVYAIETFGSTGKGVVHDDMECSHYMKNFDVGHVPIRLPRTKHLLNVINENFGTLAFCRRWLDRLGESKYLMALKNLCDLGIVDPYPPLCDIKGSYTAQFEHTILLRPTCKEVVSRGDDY

First: O=C(O)c1c(NS(=O)(=O)c2ccc(F)cc2/C=C\CN2CCCC2)ccc2c1OC[C@@H]1C[C@H]21 (racemic) [(1aRS,7bSR)-5-{2[(Z)-3-(Pyrrolidin-1-yl)prop-1-enyl]-4-fluorobenzenesulfonylamino}-1,1a,2,7b-tetrahydro-cyclopropa[c]chromene-4-carboxylic acid]
Second: O=C(O)c1c(NS(=O)(=O)c2ccccc2)ccc2c1OC[C@H]1OCC[C@@H]21 (racemic) [Cis-(3aRS,9bRS)-7-(Benzenesulfonylamino)-1,3a,4,9b-tetrahydro-2H-furo[2,3-c]chromene-6-carboxylic acid]
The IC50 of the first is lower: < 0.05 µM for the first, 0.05 to 0.5 µM for the second.

First: CCN(CC)CCCc1cc(F)ccc1S(=O)(=O)Nc1ccc2c(c1C(=O)O)OC[C@H]1OCC[C@@H]21 (racemic) [Cis-(3aRS,9bRS)-7-[2-(3-Diethylaminopropyl)-4-fluorobenzenesulfonyl-amino]-1,3a,4,9b-tetrahydro-2H-furo[2,3-c]chromene-6-carboxylic acid]
Second: O=C(O)c1c(NS(=O)(=O)c2ccc(F)cc2CCCN2CCCC2)ccc2c1OC[C@H]1OCC[C@@H]21 (racemic) [Cis-(3aRS,9bRS)-7-[2-(3-{Pyrrolidin-1-yl}propyl)-4-fluorobenzene-sulfonylamino]-1,3a,4,9b-tetrahydro-2H-furo[2,3-c]chromene-6-carboxylic acid]
The IC50 of the first is higher: 0.05 to 0.5 µM for the first, < 0.05 µM for the second. The second is the more potent here.

First: CN(C)CCCCNc1ccccc1S(=O)(=O)Nc1ccc2c(c1C(=O)O)OC[C@H]1OCC[C@@H]21 (racemic) [Cis-(3aRS,9bRS)-7-[2-(4-dimethylamino-butylamino)-benzenesulfonylamino]-1,3a,4,9b-tetrahydro-2H-furo[2,3-c]chromene-6-carboxylic acid]
Second: CCN(CC)C/C=C\c1cc(F)ccc1S(=O)(=O)Nc1ccc2c(c1C(=O)O)OC[C@H]1OCC[C@@H]21 (racemic) [Cis-(3aRS,9bRS)-7-[2-((Z)-3-Diethylaminoprop-1-enyl)-4-fluoro-benzenesulfonylamino]-1,3a,4,9b-tetrahydro-2H-furo[2,3-c]chromene-6-carboxylic acid]
The IC50 of the first is higher: 0.05 to 0.5 µM for the first, < 0.05 µM for the second. The second is the more potent here.

`CCN(CC)C/C=C\c1cc(F)ccc1S(=O)(=O)Nc1ccc2c(c1C(=O)O)NC[C@H]1OCC[C@@H]21` (racemic) [Cis-(3aRS,9bRS)-7-[2-((Z)-3-Diethylaminoprop-1-enyl)-4-fluorobenzenesulfonylamino]-1,2,3a,4,5,9b-hexahydrofuro[2,3-c]quinoline-6-carboxylic acid] and `CCN1CC[C@@H](Cc2cc(F)ccc2S(=O)(=O)Nc2ccc3c(c2C(=O)O)OC[C@@H]2C[C@H]32)C1` (single isomer, unassigned) cannot be ordered by IC50: < 0.05 µM for the first, < 0.05 µM for the second.

Compared with `CCNC/C=C\c1cc(F)ccc1S(=O)(=O)Nc1ccc2c(c1C(=O)O)OC[C@@H]1C[C@H]21` (single isomer, unassigned) [(1aRS,7bSR)-5-[2((Z)-3-ethylaminoprop-1-enyl)-4-fluorobenzenesulfonylamino]-1,1a,2,7b-tetrahydrocyclopropa[c]chromene-4-carboxylic acid], `CCN(CC)CC/C=C\c1cc(F)ccc1S(=O)(=O)Nc1ccc2c(c1C(=O)O)OCC1CC21` (single isomer, unassigned) [(1aRS,7bSR)-5-[2((Z)-4-diethylaminobut-1-enyl)-4-fluorobenzenesulfonyl-amino]-1,1a,2,7b-tetrahydrocyclopropa[c]chromene-4-carboxylic acid] is higher in IC50: < 0.05 µM for the first, 0.05 to 0.5 µM for the second. The first is the more potent here.

First: O=C(O)c1c(NS(=O)(=O)c2ccc(F)cc2/C=C\CN2CCCC2)ccc2c1OC[C@@H]1C[C@H]21 (single isomer, unassigned) [(1aRS,7bSR)-5-{2[(Z)-3-(pyrrolidin-1-yl)prop-1-enyl]-4-fluorobenzenesulfonylamino}-1,1a,2,7b-tetrahydro-cyclopropa[c]chromene-4-carboxylic acid]
Second: CCN(CC)C/C=C\c1cc(F)ccc1S(=O)(=O)Nc1ccc2c(c1C(=O)O)OCC1CC21 (centres unmarked) [5-[2-((Z)-3-Diethylaminoprop-1-enyl)-4-fluorobenzenesulfonyl-amino]-1,1a,2,7b-tetrahydrocyclopropa[c]chromene-4-carboxylic acid]
The IC50 of the first is higher: 0.05 to 0.5 µM for the first, < 0.05 µM for the second. The second is the more potent here.

`O=C(O)c1c(NS(=O)(=O)c2ccccc2)ccc2c3c(cnc12)OCC3` [7-(Benzenesulfonylamino))-1,2-dihydrofuro[2,3-c]quinoline-6-carboxylic acid formate salt] and `CCN(CC)C/C=C\c1cc(F)ccc1S(=O)(=O)Nc1ccc2c3c(cnc2c1C(=O)O)OCC3` [7-[2-((Z)-3-Diethylaminoprop-1-enyl)-4-fluorobenzenesulfonyl-amino]-1,2-dihydrofuro[2,3-c]quinoline-6-carboxylic acid formate salt] cannot be ordered by IC50: < 0.05 µM for the first, < 0.05 µM for the second.

First: CCN(CC)C/C=C\c1cc(F)ccc1S(=O)(=O)Nc1ccc2c(c1C(=O)O)OC[C@@H]1C[C@H]21 [(1aR,7bS) 5-[2-((Z)-3-Diethylaminoprop-1-enyl)-4-fluorobenzenesulfonyl-amino]-1,1a,2,7b-tetrahydrocyclopropa[c]chromene-4-carboxylic acid]
Second: CCN1CCCC(Cc2cc(F)ccc2S(=O)(=O)Nc2ccc3c(c2C(=O)O)OC[C@@H]2C[C@H]32)C1 (stereo partly drawn) [(1aR,7bS)-5-[2-(1-Ethylpiperidin-3-ylmethyl)-4-fluorobenzene-sulfonylamino]-1,1a,2,7b-tetrahydrocyclopropa[c]chromene-4-carboxylic acid]
The IC50 of the first is lower: < 0.05 µM for the first, 0.05 to 0.5 µM for the second. The first is the more potent here.

Compared with `CCN(CC)CCCc1cc(F)ccc1S(=O)(=O)Nc1ccc2c(c1C(=O)O)OC[C@@H]1C[C@H]21` [(1aR,7bS)-5-[2-(3-Diethylaminopropyl)-4-fluorobenzenesulfonyl-amino]-1,1a,2,7b-tetrahydrocyclopropa[c]chromene-4-carboxylic acid], `CCN1CC[C@@H](OCc2cc(F)ccc2S(=O)(=O)Nc2ccc3c(c2C(=O)O)OC[C@@H]2C[C@H]32)C1` [(1aR,7bS)-5-[2-((R)-1-Ethylpyrrolidin-3-yloxymethyl)-4-fluoro-benzenesulfonylamino]-1,1a,2,7b-tetrahydrocyclopropa-[c]chromene-4-carboxylic acid] is higher in IC50: < 0.05 µM for the first, 0.05 to 0.5 µM for the second. The first is the more potent here.

`CCN1CC[C@H](OCc2cc(F)ccc2S(=O)(=O)Nc2ccc3c(c2C(=O)O)OC[C@@H]2C[C@H]32)C1` [(1aR,7bS)-5-[2-((S)-1-Ethylpyrrolidin-3-yloxymethyl)-4-fluoro-benzenesulfonylamino]-1,1a,2,7b-tetrahydrocyclopropa-[c]chromene-4-carboxylic acid] and `CCN1CCC[C@H]1CCc1cc(F)ccc1S(=O)(=O)Nc1ccc2c(c1C(=O)O)OC[C@@H]1C[C@H]21` [(1aR,7bS)-5-{2-[2-((R)-1-Ethylpyrrolidin-2-yl)ethyl]-4-fluorobenzenesulfonyl-amino}-1,1a,2,7b-tetrahydrocyclopropa-[c]chromene-4-carboxylic acid] fall in the same range of IC50: 0.05 to 0.5 µM for the first, 0.05 to 0.5 µM for the second.

First: CCN(CC)CCCCc1cc(F)ccc1S(=O)(=O)Nc1ccc2c(c1C(=O)O)OCC1CC21 (stereo not drawn) [(1aRS,7bSR)-5-[2((Z)-4-Diethylaminobutyl)-4-fluorobenzenesulfonylamino]-1,1a,2,7b-tetrahydrocyclopropa[c]chromene-4-carboxylic acid]
Second: CCN(CC)CCCNc1ccccc1S(=O)(=O)Nc1ccc2c(c1C(=O)O)OCC1CC21 (stereo not drawn) [(1aRS,7bSR)-5-[2-(3-N,N,-Diethylaminopropylamino)benzene-sulfonylamino]-1,1a,2,7b-tetrahydrocyclopropa[c]chromene-4-carboxylic acid]
The IC50 of the first is higher: 0.05 to 0.5 µM for the first, < 0.05 µM for the second.

`O=C(O)c1c(NS(=O)(=O)c2ccc(F)cc2/C=C\CNN2CC[C@H](O)C2)ccc2c1OC[C@@H]1C[C@H]21` [(1aRS,7bSR)-5-{2[(Z)-3-((S)-3-hydroxypyrrolidin-1-y)aminoprop-1-enyl]-4-fluorobenzenesulfonylamino}-1,1a,2,7b-tetrahydrocyclopropa[c]chromene-4-carboxylic acid] and `O=C(O)c1c(NS(=O)(=O)c2ccc(F)cc2CCCN2CCC2)ccc2c1OCC1CC21` (stereo not drawn) [(1aRS,7bSR)-5-{2[(Z)-3-(Azetidin-1-yl)propyl]-4-fluorobenzenesulfonylamino}-1,1a,2,7b-tetrahydrocyclopropa[c]chromene-4-carboxylic acid] fall in the same range of IC50: 0.05 to 0.5 µM for the first, 0.05 to 0.5 µM for the second.

`CCN(CC)C/C=C\c1cc(F)ccc1S(=O)(=O)Nc1ccc2c(c1C(=O)O)OC[C@H]1C[C@@H]21` [(1aS,7bR) 5-[2-((Z)-3-Diethylaminoprop-1-enyl)-4-fluorobenzenesulfonyl-amino]-1,1a,2,7b-tetrahydrocyclopropa[c]chromene-4-carboxylic acid] and “(1aRS,7bSR)-5-{2[(Z)-3-((R)-3-Hydroxypyrrolidin-1-yl)aminoprop-1-enyl]-4-fluorobenzene-sulfonylamino}-1,1a,2,7b-tetrahydro-cyclopropa[c]chromene-4-carboxylic acid” fall in the same range of IC50: 0.05 to 0.5 µM for the first, 0.05 to 0.5 µM for the second.
